The values that follow are results of earlier work, collected in patent US7074832B2, “Compositions containing antimicrobials and urea for the treatment of dermatological disorders and methods for their use” (Bradley Pharmaceuticals, Inc., priority 2001, dated 2006).

In brackets after ≈: the same amount, converted by molar mass.

In one data set the test system is cyclooxygenase. The following applies: qualitative statement in the description.

`Cc1ncc([N+](=O)[O-])n1CCO` [Metronidazole, 2-methyl-5-nitro-1H-imidazole-1-ethanol]: the solubility in alcohol result (alcohol) is “slightly soluble”. In addition, the solubility in water (water, 20° C.) is 10000 µg/mL (≈ 58.4 mM).
With `Cc1c(C)c2c(c(C)c1O)CC[C@@](C)(CCC[C@H](C)CCC[C@H](C)CCCC(C)C)O2` [alpha tocopherol], in the data set on cyclooxygenase, the cyclooxygenase activity inhibition result was “not”.
`Cc1c(O)cc2c(c1C)O[C@](C)(CCC[C@H](C)CCC[C@H](C)CCCC(C)C)CC2` [gamma tocopherol]: in the data set on cyclooxygenase, the cyclooxygenase activity inhibition result is listed as “inhibit cyclooxygenase activity”.
As to `Cc1c(O)cc2c(c1C)OC(C)(CCC(=O)O)CC2` (stereo not drawn) [gamma-CEHC, 2,7,8-trimethyl-2-(beta-carboxyethyl)-6-hydroxychroman], the cyclooxygenase activity inhibition result in the data set on cyclooxygenase is given as “inhibit cyclooxygenase activity”.
